From patent US20230263822A1, “MODULATION OF FACTOR 11 EXPRESSION” (Ionis Pharmaceuticals, Inc., priority 2008, published 2023)

How the values were obtained:
[1] = design: species or system CD1 mice; conditions: mouse, in vivo
Protocol: Five mice from each group were sacrificed 3 days, 28 days and 56 days following the final dose. Livers were harvested for analysis.
The concentration of the full-length oligonucleotide as well as the total oligonucleotide concentration (including the degraded form) was measured. The method used is a modification of previously published methods (Leeds et al., 1996; Geary et al., 1999) which consist of a phenol-chloroform (liquid-liquid) extraction followed by a solid phase extraction. An internal standard (ISIS 355868, a 27-mer 2′-O-methoxyethyl modified phosphorothioate oligonucleotide, […], designated herein as SEQ ID NO: 270) was added prior to extraction. […] Half-lives were then calculated using WinNonlin software ([…]).
The results are presented in Tables 68 and 69, expressed as μg/g liver tissue.

[2] = system: human Factor 11 mRNA; assay: Dose-dependent inhibition of human Factor 11 in HepB3 cells, electroporation (Example 7); assay type: cell-based; conditions: for percent inhibition of human Factor 11 mRNA relative to untreated control cells: ~16 hours
Protocol: The gapmers were also transfected via electroporation and their dose dependent inhibition of human Factor 11 mRNA was measured. Cells were plated at a density of 20,000 cells per well and transfected via electroporation with 41.15 nM, 123.457 nM, 370.37 nM, 1111.11 nM, 3333.33 nM, and 10,000 nM concentrations of antisense oligonucleotide, as specified in Table 15. After a treatment period of approximately 16 hours, RNA was isolated from the cells and human Factor 11 mRNA levels were measured by quantitative real-time PCR. Human Factor 11 primer probe set RTS 2966 was used to measure mRNA levels. Factor 11 mRNA levels were adjusted according to total RNA content, as measured by RIBOGREEN. Results are presented as percent inhibition of human Factor 11, relative to untreated control cells.

## 416892 (antisense GCCCTTCATGTCTAGGTCCA; 3-14-3 chimeric gapmer, further chemistry not given here) [compound 416892]
[1]
  Half-Life in the liver: 12 days
[2]
  IC50: 610 nM
[2]; 41.15 nM
  percent inhibition of human Factor 11 mRNA relative to untreated control cells: 9%
[2]; 123.457 nM
  percent inhibition of human Factor 11 mRNA relative to untreated control cells: 12%
[2]; 370.37 nM
  percent inhibition of human Factor 11 mRNA relative to untreated control cells: 28%
[2]; 1111.11 nM
  percent inhibition of human Factor 11 mRNA relative to untreated control cells: 65%
[2]; 3333.33 nM
  percent inhibition of human Factor 11 mRNA relative to untreated control cells: 89%
[2]; 10000 nM
  percent inhibition of human Factor 11 mRNA relative to untreated control cells: 98%

## 417003 (antisense TGGTGCACAGTTTCTGGCAG; 2-13-5 gapmer chemistry, further chemistry not given here) [compound 417003]
[1]
  Half-Life in the liver: 10 days
[2]
  IC50: 1500 nM
[2]; 41.15 nM
  percent inhibition of human Factor 11 mRNA relative to untreated control cells: 31%
[2]; 123.457 nM
  percent inhibition of human Factor 11 mRNA relative to untreated control cells: 0%
[2]; 370.37 nM
  percent inhibition of human Factor 11 mRNA relative to untreated control cells: 15%
[2]; 1111.11 nM
  percent inhibition of human Factor 11 mRNA relative to untreated control cells: 43%
[2]; 3333.33 nM
  percent inhibition of human Factor 11 mRNA relative to untreated control cells: 84%
[2]; 10000 nM
  percent inhibition of human Factor 11 mRNA relative to untreated control cells: 92%

## 416825 (antisense GCCCTTCATGTCTAGGTCCA; 5-10-5 gapmer, further chemistry not given here) [compound 416825]
[1]
  Half-Life in the liver: 16 days
[2]
  IC50: 160 nM
[2]; 41.15 nM
  percent inhibition of human Factor 11 mRNA relative to untreated control cells: 32%
[2]; 123.457 nM
  percent inhibition of human Factor 11 mRNA relative to untreated control cells: 40%
[2]; 370.37 nM
  percent inhibition of human Factor 11 mRNA relative to untreated control cells: 48%
[2]; 1111.11 nM
  percent inhibition of human Factor 11 mRNA relative to untreated control cells: 75%
[2]; 3333.33 nM
  percent inhibition of human Factor 11 mRNA relative to untreated control cells: 90%
[2]; 10000 nM
  percent inhibition of human Factor 11 mRNA relative to untreated control cells: 92%

## 416850 (antisense TGCACAGTTTCTGGCAGGCC; 5-10-5 gapmer, further chemistry not given here) [compound 416850]
[1]
  Half-Life in the liver: 18 days
[2]
  IC50: 300 nM
[2]; 41.15 nM
  percent inhibition of human Factor 11 mRNA relative to untreated control cells: 26%
[2]; 123.457 nM
  percent inhibition of human Factor 11 mRNA relative to untreated control cells: 38%
[2]; 370.37 nM
  percent inhibition of human Factor 11 mRNA relative to untreated control cells: 51%
[2]; 1111.11 nM
  percent inhibition of human Factor 11 mRNA relative to untreated control cells: 73%
[2]; 3333.33 nM
  percent inhibition of human Factor 11 mRNA relative to untreated control cells: 90%
[2]; 10000 nM
  percent inhibition of human Factor 11 mRNA relative to untreated control cells: 95%
